In patent US6949575B2, “Method of inhibiting amyloid protein aggregation and imaging amyloid deposits using aminoindane derivatives” (Pfizer Inc., priority 2000, dated 2005) one finds IC50 data, which are given here for four compounds.

Holding throughout (format): biochemical
For one assay, the target named is T1, Soluble Aβ(1-40) (Homo sapiens, UniProt P05067).
T1 construct: Soluble Aβ(1-40)—2.2 mg/mL in deionized H2O
Briefly: BASST (Beta-Amyloid Self-Seeding, Thioflavin T): inhibitors of self-seeded amyloid fibril growth. As to conditions: 30 μM soluble Aβ(1-40), 37° C., 3 to 5 hours, thioflavin T fluorescence. The protocol: • 1) Prepare reaction mixture above by mixing components and storing on ice. • 2) Pipet 14.5 μL of reaction mixture into each of 50 wells on a polypropylene U-bottom 96-well microtiter plate on ice (Costar 3794). • 3) Add 1.7 μL of diluted compound to be tested to each well in a column of eight, including solvent control. Serial 3-fold dilutions from 1 mM (100 μM final) in assay buffer-urea=7 dilutions+zero. Each 96-well plate can therefore accommodate 11 samples+1 Congo Red control (0.039-5 μM final in 2-fold steps). • 4) Seal the plate with aluminum film (Beckman 538619) and incubate for 10 minutes on ice. • 5) Raise the temperature to 37° C. and incubate for 3 to 5 hours (depending on the lot of the peptide). • 6) Remove the aluminum film and add 200 μL/well of ice cold assay buffer with urea, collecting the radiolabeled fibrils by vacuum filtration through 0.2-μm pore size GVWP filters in 96-well plates (Millipore MAGV […], Bedford, Mass.). Determine the radioactivity of the filters using standard methods well-known to those skilled in the art. BASST (Beta-Amyloid Self-Seeding, Thioflavin T) An assay for inhibitors of self-seeded amyloid fibril growth Methods: Materials: Stock Solutions: Assay Buffer-50 mM sodium phosphate, pH 7.5, 100 mM NaCl, 0.02% NaN3, 1 M urea (filter and store at 4° C.) Soluble Aβ(1-40)-2.2 mg/mL in deionized H2O (store in aliquots at -20° C., keep on ice when thawed) will self-seed after 1 week storage. Typically, the solution should be stored until no lag phase is seen in the assay. Final assay conditions: 30 μM soluble Aβ(1-40) in deionized water in assay buffer. Compound to be tested is dissolved in DMSO, typically 5 to 50 mM stock, such that the final concentration of DMSO is <1% v/v in the assay. Assay: Reaction mixture for 50 assays (on ice) comprised of 1 μL of soluble Aβ(1-40)+13.5 μL assay buffer per assay. The following are the amounts of the components of the reaction mixture that result in each of the 50 assay wells. 50 μL soluble Aβ(1-40) 675 μL assay buffer Assay Method • 1) Prepare the reaction mix above by mixing the components and storing on ice. • 2) Pipet 14.5 μL of reaction mixture into each of 50 wells of a polystyrene U-bottom 96-well microtiter plate (Coming 25881-96) on ice. • 3) Add 1.7 μL of diluted compound to be tested to each well in a column of eight, including solvent control. Serial 3-fold dilutions from 1 mM (100 μM final) in assay buffer-urea=7 dilutions+zero. Each 96-well plate can therefore accommodate 11 samples+1 Congo Red control (0.039-5 μM final in 2-fold steps). • 4) Seal the plate with aluminum film and incubate for 10 minutes on ice. • 5) Raise the temperature to 37° C. and incubate for 3 to 5 hours (depends on the lot of the peptide). • 6) Remove the aluminum film and add 250 μL/well of 5 μM thioflavin T (ThT) [T-3516, Sigma-Aldrich] in 50 mM glycine-NaOH, pH 8.5. Read fluorescence on a plate reader (ex=440 nm/20 nm; em=485 nm/20 nm) within 5 minutes. BAPA (Beta-Amyloid Peptide Aggregation)

The next assay has as its target T2, Soluble Aβ(1-40) peptide (Homo sapiens, UniProt P05067).
T2 construct: Soluble Aβ(1-40) peptide; purchased Bachem, Torrance, Calif
Briefly: BASSR (Beta-Amyloid Self-Seeding Radioassay): inhibitors of self-seeded amyloid fibril growth. As to conditions: 30 μM soluble Aβ(1-40) + 125I-labeled Aβ(1-40), 37° C., 3 to 5 hours, filtration; replicate values. As to the method:
BASSR (Beta-Amyloid Self-Seeding Radioassay)
An assay for inhibitors of self-seeded amyloid fibril growth
Assay Buffer—[…] sodium phosphate, pH 7.5, 100 mM NaCl, 0.02% NaN3, 1 M urea (filter and store at 4° C.)
Soluble Aβ(1-40) peptide (Bachem, Torrance, Calif.)—2.2 mg/mL in deionized H2O (stored in aliquots at −20° C., keep on ice when thawed) will self-seed after 1 week storage. Typically, the solution should be stored until no lag phase is seen in the assay.
^125I-labeled Aβ(1-40)—150 to 350K cpm/μL in 100% acetonitrile—0.1% trifluoroacetic acid (TFA)—1% β-mercaptoethanol (aliquots stored at −20° C.). ^125I-labeled Aβ(1-40) can be made in accordance with the procedure set forth by H. Levine, III in Neurobiol. Aging, 16:755 (1995), which is hereby incorporated by reference, or this reagent may be purchased from Amersham, Arlington Heights, Ill. Final assay conditions: 30 μM soluble Aβ(1-40) in deionized water in assay buffer+20 to 50K cpm ^125I-labeled Aβ(1-40) per assay. Compound to be tested is dissolved in dimethylsulfoxide (DMSO), typically 5 to 50 mM stock, such that the final concentration of DMSO is <1% v/v in the assay. Assay: Reaction mixture for 50 assays (on ice) is comprised of 0.1 to 0.2 μL of ^125I-labeled A^125I-labeled Aβ(1-40)+1 μL of soluble Aβ(1-40)+13.5 μL assay buffer per assay. The following are the amounts of the components of the reaction mixture sufficient for 50 assay wells.
• 1) Prepare reaction mixture above by mixing components and storing on ice. • 2) Pipet 14.5 μL of reaction mixture into each of 50 wells on a polypropylene U-bottom 96-well microtiter plate on ice (Costar 3794). • 3) Add 1.7 μL of diluted compound to be tested to each well in a column of eight, including solvent control. Serial 3-fold dilutions from 1 mM (100 μM final) in assay buffer-urea=7 dilutions+zero. Each 96-well plate can therefore accommodate 11 samples+1 Congo Red control (0.039-5 μM final in 2-fold steps). • 4) Seal the plate with aluminum film (Beckman 538619) and incubate for 10 minutes on ice. • 5) Raise the temperature to 37° C. and incubate for 3 to 5 hours (depending on the lot of the peptide). • 6) Remove the aluminum film and add 200 μL/well of ice cold assay buffer with urea, collecting the radiolabeled fibrils by vacuum filtration through 0.2-μm pore size GVWP filters in 96-well plates (Millipore MAGV N22, Bedford, Mass.). Determine the radioactivity of the filters using standard methods well-known to those skilled in the art. BASST (Beta-Amyloid Self-Seeding, Thioflavin T)

In a further assay the target is T3, Aβ (1-42) (Homo sapiens, UniProt P05067).
T3 construct: Required Aβ (1-42) (California Peptide); purchased California Peptide
T3 sequence (P05067 672-713 limits assumed): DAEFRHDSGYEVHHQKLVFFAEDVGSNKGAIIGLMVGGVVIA
Briefly: Batym Assay: Aβ (1-42) aggregation, Thioflavin T fluorescence. As to conditions: Aβ1-42 final 100 μM, 37° C., 1 day, read-out: BAYTM IC50. As to the method:
Required Aβ (1-42) (California Peptide) was dried from its HFIP stock solution. The Aβ (1-42) was dissolved in DMSO and then mixed with phosphate buffered saline (PBS) (pH 7.4). The mixed Aβ (1-42) solution was filtered with a Omnipore membrane 0.2-μm syringe filter (Millipore, Bedford, Mass.). The compound to be tested in DMSO (50× concentrate) was put into each well (0.5 μL/well) of a 96-well plate. The Aβ (1-42) solution was added into each well (24.5 μL/well). The plate was centrifuged at 1,000 g for 5 minutes and incubated at 37° C. for 1 day (Aβ1-42; final concentration 100 μM).
After incubation, Thioflavin T (ThT) (30 μM) solution in glycine-NaOH buffer (pH 8.5, 50 mM) was added into each well (250 μL/well), fluorescence was measured (ex=440/20 nm; em=485/20 nm) using a fluorescence plate reader. The inhibitory activity was calculated as the reduction of fluorescence with the following formula: Inhibition (%)={(F(Aβ)−F(Aβ+compound)}/{F(Aβ)−[…]}×100
The IC50s were calculated by a curve fitting program using the following equation. The data were obtained from two different experiments in triplicate. Inhibition (x)=100−100/{1+(x/IC50)^n}. • x=concentration of tested compound (M). • IC50=(M). • n=Hill coefficient.

A further assay has as its target T4, Aβ (1-40) peptide (Homo sapiens, UniProt P05067).
T4 construct: Aβ (1-40) peptide in 20% HFIP
In words: BAPA (Beta-Amyloid Peptide Aggregation, pH 6.0), filtration endpoint. The following applies: Aβ(1-40) 33 μM, pH 6.0, 2 to 4 hours, room temperature. The protocol: • 1) Prepare the reaction mix above by mixing the components and storing on ice. • 2) Pipet 14.5 μL of reaction mixture into each of 50 wells of a polystyrene U-bottom 96-well microtiter plate (Coming 25881-96) on ice. • 3) Add 1.7 μL of diluted compound to be tested to each well in a column of eight, including solvent control. Serial 3-fold dilutions from 1 mM (100 μM final) in assay buffer-urea=7 dilutions+zero. Each 96-well plate can therefore accommodate 11 samples+1 Congo Red control (0.039-5 μM final in 2-fold steps). • 4) Seal the plate with aluminum film and incubate for 10 minutes on ice. • 5) Raise the temperature to 37° C. and incubate for 3 to 5 hours (depends on the lot of the peptide). • 6) Remove the aluminum film and add 250 μL/well of 5 μM thioflavin T (ThT) [T-3516, Sigma-Aldrich] in 50 mM glycine-NaOH, pH 8.5. Read fluorescence on a plate reader (ex=440 nm/20 nm; em=485 nm/20 nm) within 5 minutes. BAPA (Beta-Amyloid Peptide Aggregation) This assay is used to provide a measure of inhibition by a compound against the aggregation behavior of the β-amyloid peptide. The purpose of this assay is to provide a higher volume method of assaying the amount of β-amyloid aggregation using an endpoint assay based on filtration. In this assay, hexafluoroisopropanol (HFIP) is used to break down the initial amyloid peptide to a monomer state and use a concentration of 33 μM which is high enough so that aggregation will occur at pH 6.0 in several hours. Methods: Beta-Amyloid Peptide Aggregation, pH 6.0 (BAPA) In a 96-well plate (Costar 3794), we add 25 μL 50 mM phosphate buffer, pH 6.0, 10 μL 0.5 mg/mL Aβ (1-40) peptide in 20% HFIP+0.1 μL/assay radioiodinated ^125I Aβ (1-40) [^125I Aβ(1-40)], and 1 μL of the compound to be tested starting at 50 mM with a concentration of DMSO<1%. Then, we incubate for 2 to 4 hours at room temperature. We stop the reaction with 200 μL of 50 mM phosphate buffer, pH 6.0, and filter it through a 0.2 μm 96-well filter plate (Millipore MAGU […]). We wash the filter plate with 100 μL of the same phosphate buffer. Aggregation was detected on a Microbeta counter after impregnating the filters with Meltilex (1450-441) and is corrected for background.

Values joined by “and” are separate entries in the source; they are usually repeats but may differ in a detail not shown here. Equal values may be shown once.

T4 sequence (P05067 672-711 limits assumed): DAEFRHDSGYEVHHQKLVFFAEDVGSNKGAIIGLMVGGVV
T1 sequence (P05067 672-711 limits assumed): as above
T2 sequence (P05067 672-711 limits assumed): as above

As to `O=C(O)c1ccccc1Nc1ccc2c(c1)CC(NCc1ccc(Cl)c(Cl)c1)C2` (centres unmarked) [Example 3, 2-[2-(3,4-Dichlorobenzylamino)-indane-5-ylamino]-benzoic acid], the IC50 against Soluble Aβ(1-40) is 40 µM; on Soluble Aβ(1-40) peptide it was greater than 100 µM; on Aβ (1-42) it was greater than 100 µM.

Consider `O=C(O)c1cc([N+](=O)[O-])ccc1Nc1ccc2c(c1)CC(NCc1ccc(Cl)c(Cl)c1)C2` (centres unmarked) [Example 4, 2-[2-(3,4-Dichlorobenzylamino)-indan-5-ylamine]-5-nitro-benzoic Acid], for which the IC50 at Soluble Aβ(1-40) is 1.1 µM; at Aβ (1-42) it was 16 µM; against Aβ (1-40) peptide it was 28 µM.

Regarding `O=C(O)c1cc([N+](=O)[O-])ccc1NC1Cc2ccc(Nc3ccc(Cl)c(Cl)c3)cc2C1` (centres unmarked) [Example 9, 2-[5-(3,4-Dichlorophenylamino)-indan-2-ylamino]-5-nitro-benzoic acid], the figures for the IC50 on Soluble Aβ(1-40) and against Aβ (1-40) peptide were 0.25 µM and 5 µM, respectively.

Turning to `O=C(O)c1cc([N+](=O)[O-])ccc1Nc1ccc2c(c1)CC(N(Cc1ccc(F)cc1)Cc1ccc(F)cc1)C2` (centres unmarked) [Example 11, 2-{2-[bis-(4-Fluorobenzyl)amino]indan-5-ylamino}-5-nitro-benzoic acid], the IC50 is 1 µM at Soluble Aβ(1-40); 7 µM and 12 µM at Aβ (1-42); 7 µM at Aβ (1-40) peptide.
